pIC50: −log10 of the molar value.
What was measured:
Experiment in all cases: cells
[1] = system: Capan-2; type: functional, cell-based, Homo sapiens; conditions: Homo sapiens, Capan-2;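 also: Capan-2 cell growth inhibition, read out with a viability assay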
Description: SANGER: Inhibition of human Capan-2 cell growth in a cell viability assay.

[2] = system: ES5; type: functional, cell-based, Homo sapiens; conditions: Homo sapiens, ES5;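 also: growth inhibition of human ES5 cells, read out by a cell viability assay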
Description: SANGER: Inhibition of human ES5 cell growth in a cell viability assay.

[3] = system: ES7; type: functional, cell-based, Homo sapiens; conditions: Homo sapiens, ES7;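 also: growth inhibition of cultured human ES7 cells, read out as cell viability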
Description: SANGER: Inhibition of human ES7 cell growth in a cell viability assay.

[4] = system: FTC-133; type: functional, cell-based, Homo sapiens; conditions: Homo sapiens, FTC-133
[5] = system: GB-1; type: functional, cell-based, Homo sapiens; conditions: Homo sapiens, GB-1;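 also: growth of GB-1 cells judged by a viability assay, IC50 marks the concentration inhibiting growth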
Description: SANGER: Inhibition of human GB-1 cell growth in a cell viability assay.

[6] = system: HCC1954; type: functional, cell-based, Homo sapiens; conditions: Homo sapiens, HCC1954;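 also: growth inhibition of human HCC1954 cells, read out with a cell viability assay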
Description: SANGER: Inhibition of human HCC1954 cell growth in a cell viability assay.

[7] = system: HCE-T; type: functional, cell-based, Homo sapiens; conditions: Homo sapiens, HCE-T;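 also: cell viability assay read-out, reporting inhibition of HCE-T cell growth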
Description: SANGER: Inhibition of human HCE-T cell growth in a cell viability assay.

[8] = system: HMV-2 cell line; type: functional, cell-based, Homo sapiens; conditions: Homo sapiens, HMV-2;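 also: growth inhibition of HMV-II cells, read out with a cell viability assay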
Description: SANGER: Inhibition of human HMV-II cell growth in a cell viability assay.

[9] = system: HuTu80; type: functional, cell-based, Homo sapiens, HUTU-80; conditions: Homo sapiens, HuTu80;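 also: growth inhibition of HuTu80 human cells, determined with a cell viability readout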
Description: SANGER: Inhibition of human HUTU-80 cell growth in a cell viability assay.

[10] = system: HuP-T4; type: functional, cell-based, Homo sapiens; conditions: Homo sapiens, HuP-T4;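 also: cell viability assay measuring how much HuP-T4 cell growth is inhibited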
Description: SANGER: Inhibition of human HuP-T4 cell growth in a cell viability assay.

[11] = system: JVM-3; type: functional, cell-based; conditions: Homo sapiens;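 also: growth inhibition of human JVM-3 cells, read out with a cell viability assay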
Description: SANGER: Inhibition of human JVM-3 cell growth in a cell viability assay.

[12] = system: KNS-81-FD; type: functional, cell-based, Homo sapiens; conditions: Homo sapiens, KNS-81-FD;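 also: growth inhibition of KNS-81-FD cells, read out with a cell viability assay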
Description: SANGER: Inhibition of human KNS-81-FD cell growth in a cell viability assay.

[13] = system: KP-N-YN; type: functional, cell-based; conditions: Homo sapiens;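 also: growth inhibition of KP-N-YN cells, read out with a cell viability assay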
Description: SANGER: Inhibition of human KP-N-YN cell growth in a cell viability assay.

[14] = system: KYSE-510; type: functional, cell-based, Homo sapiens; conditions: Homo sapiens, KYSE-510;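 also: cell viability readout used to measure how strongly growth of the cell line is suppressed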
Description: SANGER: Inhibition of human KYSE-510 cell growth in a cell viability assay.

[15] = system: KYSE-520 cell line; type: functional, cell-based, Homo sapiens; conditions: Homo sapiens, KYSE-520;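 also: growth inhibition of human KYSE-520 cells, read out with a viability assay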
Description: SANGER: Inhibition of human KYSE-520 cell growth in a cell viability assay.

[16] = system: KYSE-70 cell line; type: functional, cell-based, Homo sapiens; conditions: Homo sapiens, KYSE-70;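 also: cell viability assay read-out, with IC50 expressing suppression of KYSE-70 cell growth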
Description: SANGER: Inhibition of human KYSE-70 cell growth in a cell viability assay.

[17] = system: L-363; type: functional, cell-based; conditions: Homo sapiens
Description: SANGER: Inhibition of human L-363 cell growth in a cell viability assay.

[18] = system: LC-2-ad; type: functional, cell-based, Homo sapiens; conditions: Homo sapiens, LC-2-ad;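 also: growth inhibition of human LC-2-ad cells, read out with a cell viability assay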
Description: SANGER: Inhibition of human LC-2-ad cell growth in a cell viability assay.

[19] = system: LOX IMVI; type: functional, cell-based; conditions: Homo sapiens
Description: SANGER: Inhibition of human LOXIMVI cell growth in a cell viability assay.

[20] = system: LoVo; type: functional, cell-based; conditions: Homo sapiens;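 also: growth inhibition of human LoVo cells, read out with a cell viability assay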
Description: SANGER: Inhibition of human LoVo cell growth in a cell viability assay.

[21] = system: MEG-01; type: functional, cell-based; conditions: Homo sapiens;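 also: growth inhibition of MEG-01 cells, read out by a cell viability assay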
Description: SANGER: Inhibition of human MEG-01 cell growth in a cell viability assay.

[22] = system: MN-60; type: functional, cell-based; conditions: Homo sapiens;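 also: growth inhibition of the MN-60 cell line, determined with a cell viability assay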
Description: SANGER: Inhibition of human MN-60 cell growth in a cell viability assay.

[23] = system: MS-1; type: functional, cell-based; conditions: Homo sapiens;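 also: growth inhibition of MS-1 cells, read out by cell viability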
Description: SANGER: Inhibition of human MS-1 cell growth in a cell viability assay.

[24] = system: NB10; type: functional, cell-based, Homo sapiens; conditions: Homo sapiens, NB10;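 also: growth inhibition of NB10 cells, read out by a cell viability assay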
Description: SANGER: Inhibition of human NB10 cell growth in a cell viability assay.

[25] = system: NB7; type: functional, cell-based; conditions: Homo sapiens;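 also: growth inhibition of NB7 cells, read out with a cell viability assay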
Description: SANGER: Inhibition of human NB7 cell growth in a cell viability assay.

[26] = system: NCI-H1355; type: functional, cell-based, Homo sapiens; conditions: Homo sapiens, NCI-H1355;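 also: growth inhibition of human NCI-H1355 cells, read out by a cell viability assay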
Description: SANGER: Inhibition of human NCI-H1355 cell growth in a cell viability assay.

[27] = system: NCI-H1650; type: functional, cell-based, Homo sapiens; conditions: Homo sapiens, NCI-H1650;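 also: growth inhibition of human NCI-H1650 cells measured by a cell viability assay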
Description: SANGER: Inhibition of human NCI-H1650 cell growth in a cell viability assay.

[28] = system: NCI-H520; type: functional, cell-based, Homo sapiens; conditions: Homo sapiens, NCI-H520;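 also: growth inhibition of NCI-H520 cells, measured by a cell viability assay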
Description: SANGER: Inhibition of human NCI-H520 cell growth in a cell viability assay.

[29] = system: NCI-H810; type: functional, cell-based, Homo sapiens; conditions: Homo sapiens, NCI-H810;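 also: IC50 reflects inhibition of cancer cell line growth, read out with a cell viability assay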
Description: SANGER: Inhibition of human NCI-H810 cell growth in a cell viability assay.

[30] = system: SNU-5; type: functional, cell-based; conditions: Homo sapiens;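 also: cell viability readout used to measure growth inhibition in human NCI-SNU-5 cells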
Description: SANGER: Inhibition of human NCI-SNU-5 cell growth in a cell viability assay.

[31] = system: OCI-AML2; type: functional, cell-based; conditions: Homo sapiens;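 also: growth inhibition of OCI-AML2 cells, read out with a cell viability assay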
Description: SANGER: Inhibition of human OCI-AML2 cell growth in a cell viability assay.

[32] = system: OVCAR-3; type: functional, cell-based, Homo sapiens; conditions: Homo sapiens, OVCAR-3;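 also: growth inhibition of human OVCAR-3 cells, determined by a cell viability assay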
Description: SANGER: Inhibition of human OVCAR-3 cell growth in a cell viability assay.

[33] = system: RKO; type: functional, cell-based, Homo sapiens; conditions: Homo sapiens, RKO;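 also: growth inhibition of human RKO cells, read out with a cell viability assay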
Description: SANGER: Inhibition of human RKO cell growth in a cell viability assay.

[34] = system: RT-112; type: functional, cell-based, Homo sapiens; conditions: Homo sapiens, RT-112
Description: SANGER: Inhibition of human RT-112 cell growth in a cell viability assay.

[35] = system: SCC-25; type: functional, cell-based, Homo sapiens; conditions: Homo sapiens, SCC-25;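 also: growth inhibition of SCC-25 cells, measured with a cell viability assay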
Description: SANGER: Inhibition of human SCC-25 cell growth in a cell viability assay.

[36] = system: SCH; type: functional, cell-based, Homo sapiens; conditions: Homo sapiens, SCH;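 also: growth inhibition of human SCH cells, read out in a cell viability assay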
Description: SANGER: Inhibition of human SCH cell growth in a cell viability assay.

[37] = system: SF-126; type: functional, cell-based, Homo sapiens; conditions: Homo sapiens, SF-126;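 also: growth inhibition of human SF126 cells, read out with a cell viability assay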
Description: SANGER: Inhibition of human SF126 cell growth in a cell viability assay.

[38] = system: SJSA-1; type: functional, cell-based, Homo sapiens; conditions: Homo sapiens, SJSA-1;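 also: growth inhibition of human SJSA-1 cells, read out through a cell viability measurement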
Description: SANGER: Inhibition of human SJSA-1 cell growth in a cell viability assay.

[39] = system: SK-LU-1; type: functional, cell-based, Homo sapiens; conditions: Homo sapiens, SK-LU-1;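 also: cell viability assay measuring growth inhibition of human SK-LU-1 cells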
Description: SANGER: Inhibition of human SK-LU-1 cell growth in a cell viability assay.

[40] = system: SK-MEL-24; type: functional, cell-based; conditions: Homo sapiens;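 also: growth inhibition read out by a cell viability assay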
Description: SANGER: Inhibition of human SK-MEL-24 cell growth in a cell viability assay.

[41] = system: SNU-387; type: functional, cell-based, Homo sapiens; conditions: Homo sapiens, SNU-387
Description: SANGER: Inhibition of human SNU-387 cell growth in a cell viability assay.

[42] = system: SW-620; type: functional, cell-based, Homo sapiens; conditions: Homo sapiens, SW-620;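 also: growth inhibition of human SW-620 cells, measured by a cell viability assay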
Description: SANGER: Inhibition of human SW620 cell growth in a cell viability assay.

[43] = system: 786-0; type: functional, cell-based, Homo sapiens; conditions: Homo sapiens
Description: SANGER: Inhibition of human 786-0 cell growth in a cell viability assay.

[44] = system: 8505C; type: functional, cell-based, Homo sapiens; conditions: Homo sapiens, 8505C
Description: SANGER: Inhibition of human 8505C cell growth in a cell viability assay.

[45] = system: A2780; type: functional, cell-based, Homo sapiens; conditions: Homo sapiens, A2780;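 also: growth inhibition of A2780 cells, read out with a cell viability assay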
Description: SANGER: Inhibition of human A2780 cell growth in a cell viability assay.

[46] = system: AN3-CA; type: functional, cell-based; conditions: Homo sapiens;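 also: growth inhibition of human AN3-CA cells measured by a cell viability assay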
Description: SANGER: Inhibition of human AN3-CA cell growth in a cell viability assay.

[47] = system: BB49-HNC; type: functional, cell-based, Homo sapiens; conditions: Homo sapiens, BB49-HNC;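 also: cell viability assay read-out, reported as inhibition of BB49-HNC cell growth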
Description: SANGER: Inhibition of human BB49-HNC cell growth in a cell viability assay.

[48] = system: TE-10; type: functional, cell-based, Homo sapiens; conditions: Homo sapiens, TE-10;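 also: growth inhibition of TE-10 cells, measured by a cell viability assay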
Description: SANGER: Inhibition of human TE-10 cell growth in a cell viability assay.

[49] = system: TGBC24TKB; type: functional, cell-based, Homo sapiens; conditions: Homo sapiens, TGBC24TKB;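 also: growth inhibition of human TGBC24TKB cells, read out with a cell viability assay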
Description: SANGER: Inhibition of human TGBC24TKB cell growth in a cell viability assay.

[50] = system: TGW; type: functional, cell-based; conditions: Homo sapiens;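 also: growth inhibition of human TGW cells, read out with a cell viability assay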
Description: SANGER: Inhibition of human TGW cell growth in a cell viability assay.

[51] = system: TYK-nu; type: functional, cell-based, Homo sapiens; conditions: Homo sapiens, TYK-nu;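 also: growth inhibition of human TYK-nu cells, read out by a cell viability assay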
Description: SANGER: Inhibition of human TYK-nu cell growth in a cell viability assay.

[52] = system: YAPC; type: functional, cell-based, Homo sapiens; conditions: Homo sapiens, YAPC;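 also: growth inhibition of YAPC cells, measured with a cell viability assay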
Description: SANGER: Inhibition of human YAPC cell growth in a cell viability assay.

[53] = system: CHL-1; type: functional, cell-based, Homo sapiens; conditions: Homo sapiens, CHL-1;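 also: cell growth inhibition, read out with a cell viability assay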
Description: SANGER: Inhibition of human CHL-1 cell growth in a cell viability assay.

CCOc1nc(NC(=O)Cc2cc(OC)ccc2OC)cc(N)c1C#N
pIC50 [1]: < 5.00
pIC50 [2]: < 5.00
pIC50 [3]: < 5.00
pIC50 [4]: < 5.00
pIC50 [5]: < 5.00
pIC50 [6]: < 5.00
pIC50 [7]: < 5.00
pIC50 [8]: < 5.00
pIC50 [9]: < 5.00
pIC50 [10]: < 5.00
pIC50 [11]: < 5.00
pIC50 [12]: < 5.00
pIC50 [13]: < 5.00
pIC50 [14]: < 5.00
pIC50 [15]: < 5.00
pIC50 [16]: < 5.00
pIC50 [17]: < 5.00
pIC50 [18]: < 5.00
pIC50 [19]: < 5.00
pIC50 [20]: < 5.00
pIC50 [21]: < 5.00
pIC50 [22]: < 5.00
pIC50 [23]: < 5.00
pIC50 [24]: < 5.00
pIC50 [25]: 5.64
pIC50 [26]: < 5.00
pIC50 [27]: < 5.00
pIC50 [28]: < 5.00
pIC50 [29]: < 5.00
pIC50 [30]: < 5.00
pIC50 [31]: < 5.00
pIC50 [32]: < 5.00
pIC50 [33]: < 5.00
pIC50 [34]: < 5.00
pIC50 [35]: < 5.00
pIC50 [36]: < 5.00
pIC50 [37]: < 5.00
pIC50 [38]: < 5.00
pIC50 [39]: < 5.00
pIC50 [40]: < 5.00
pIC50 [41]: < 5.00
pIC50 [42]: < 5.00
pIC50 [43]: < 5.00
pIC50 [44]: < 5.00
pIC50 [45]: < 5.00
pIC50 [46]: < 5.00
pIC50 [47]: < 5.00
pIC50 [48]: < 5.00
pIC50 [49]: < 5.00
pIC50 [50]: < 5.00
pIC50 [51]: < 5.00
pIC50 [52]: < 5.00
pIC50 [53]: < 5.00

CC(=O)O[C@@H]1[C@@H](OC(C)=O)[C@@H](O)[C@H](Oc2c(-c3ccc(O)cc3)oc3cc(O)cc(O)c3c2=O)O[C@H]1C
pIC50 [1]: < 5.00
pIC50 [2]: < 5.00
pIC50 [3]: < 5.00
pIC50 [4]: < 5.00
pIC50 [5]: < 5.00
pIC50 [6]: < 5.00
pIC50 [7]: < 5.00
pIC50 [8]: < 5.00
pIC50 [9]: < 5.00
pIC50 [10]: < 5.00
pIC50 [11]: < 5.00
pIC50 [12]: < 5.00
pIC50 [13]: < 5.00
pIC50 [14]: < 5.00
pIC50 [15]: < 5.00
pIC50 [16]: < 5.00
pIC50 [17]: < 5.00
pIC50 [18]: < 5.00
pIC50 [19]: < 5.00
pIC50 [20]: < 5.00
pIC50 [21]: < 5.00
pIC50 [22]: < 5.00
pIC50 [23]: < 5.00
pIC50 [24]: < 5.00
pIC50 [25]: < 5.00
pIC50 [26]: < 5.00
pIC50 [27]: < 5.00
pIC50 [28]: < 5.00
pIC50 [29]: < 5.00
pIC50 [30]: < 5.00
pIC50 [31]: < 5.00
pIC50 [32]: < 5.00
pIC50 [33]: < 5.00
pIC50 [34]: < 5.00
pIC50 [35]: < 5.00
pIC50 [36]: < 5.00
pIC50 [37]: < 5.00
pIC50 [38]: < 5.00
pIC50 [39]: < 5.00
pIC50 [40]: < 5.00
pIC50 [41]: < 5.00
pIC50 [42]: < 5.00
pIC50 [43]: < 5.00
pIC50 [44]: < 5.00
pIC50 [45]: < 5.00
pIC50 [46]: < 5.00
pIC50 [47]: < 5.00
pIC50 [48]: < 5.00
pIC50 [49]: < 5.00
pIC50 [50]: < 5.00
pIC50 [51]: < 5.00
pIC50 [52]: < 5.00
pIC50 [53]: < 5.00
